Publication PMC4424558, “Antimicrobial and antioxidant flavonoids from the leaves of Oncoba spinosa Forssk. (Salicaceae)” (BMC Complementary and Alternative Medicine, 2015)
Values after ≈ are worked out from the molar mass of the structure shown. Where two headings read alike, the source gives them in different places.

Legend:
fungi = assay: Broth microdilution, fungal strains (panel summary); format: cell-based; details: for MIC (range over fungi): range over the fungal strains
Protocol: (§1) The studied microorganisms were both reference (from the American Type Culture Collection) and clinical (from Pasteur Institute Paris, France) strains of Enterobacter aerogenes, Escherichia coli, Klebsiella pneumoniae, Candida albicans, and Cryptococcus neoformans. Also, included were two clinical isolates of Candida parapsilosis and Staphylococcus aureus collected from Pasteur Centre (Yaoundé-Cameroon). The bacterial and fungal species were grown at 37°C and maintained on nutrient agar (NA, Conda, Madrid, Spain) and Sabouraud Dextrose Agar (SDA, Conda) slants respectively.
(§2) The inocula of yeasts and bacteria were prepared from overnight cultures by picking numerous colonies and suspending them in sterile saline (NaCl) solution (0.90%). Absorbance was read at 530 nm for yeasts or at 600 nm for bacteria and adjusted with the saline solution to match that of a 0.50 McFarland standard solution. From the prepared microbial solutions, other dilutions with saline solution were prepared to give a final concentration of 10^6 yeast cells/ml and 10^6 CFU/ml for bacteria.
(§3) The antimicrobial activity was investigated by determining the minimum inhibitory concentrations (MICs), minimum bactericidal concentrations (MBCs) and minimum fungicidal concentrations (MFCs).
MICs were determined by broth micro dilution. Stock solutions of the tested samples were prepared in 10% v/v aqueous dimethylsulfoxide (DMSO) solution (Fisher chemicals, Strasbourg, France) at concentration of 4096 μg/ml. This was two-fold serially diluted in Mueller-Hinton Broth (MHB) for bacteria and Sabouraud Dextrose Broth (SDB) for fungi to obtain a concentration range of 2048 to 0.25 μg/ml. For every experiment, a sterility check (10% aqueous DMSO and medium), negative control (10% aqueous DMSO, medium and inoculum) and positive control (10% aqueous DMSO, medium, inoculum and water-soluble antibiotics) were included. […] MICs were assessed visually after the corresponding incubation period and were taken as the lowest sample concentration at which there was no growth or virtually no growth. […]

[1] = test system: bacterial and fungal species; assay: Broth microdilution, all studied microorganisms (panel summary); format: cell-based; details: for studied microorganisms on which inhibitory effects were noted: out of 7 studied microorganisms
Protocol: as §1, §2, §3
(§4) MICs were determined by broth micro dilution. Stock solutions of the tested samples were prepared in 10% v/v aqueous dimethylsulfoxide (DMSO) solution (Fisher chemicals, Strasbourg, France) at concentration of 4096 μg/ml. This was two-fold serially diluted in Mueller-Hinton Broth (MHB) for bacteria and Sabouraud Dextrose Broth (SDB) for fungi to obtain a concentration range of 2048 to 0.25 μg/ml. For every experiment, a sterility check (10% aqueous DMSO and medium), negative control (10% aqueous DMSO, medium and inoculum) and positive control (10% aqueous DMSO, medium, inoculum and water-soluble antibiotics) were included. One hundred microliters of each concentration was introduced into a well (96-wells microplate) containing 90 μl of SDB or MHB and 10 μl of inoculum was added to obtain a final concentration range of […]. The plates were covered with a sterile lid, and incubated on the shaker at 37°C for 24 h (bacteria) and 48 h (yeasts). MICs were assessed visually after the corresponding incubation period and were taken as the lowest sample concentration at which there was no growth or virtually no growth. The assay was repeated thrice.
(§5) The lowest concentration that yielded no growth after the sub-culturing was taken as the MBCs or MFCs. Chloramphenicol (Sigma-Aldrich, Steinheim, Germany) for bacteria and nystatin (Sigma-Aldrich, Steinheim, Germany) for yeasts were used as positive controls.

[2] = test system: Enterobacter aerogenes ATCC13048; assay: Broth microdilution MIC/MBC against Enterobacter aerogenes ATCC13048; format: cell-based; details: for MBC / MIC: Klebsiella aerogenes; for MIC: 37°C, 24 h
Protocol: as §1, §2, §3, §4, §5

[3] = Trolox equivalent antioxidant capacity (TEAC) assay; format: biochemical; details: ABTS/laccase, 420 nm, 230 s; 20 μg/ml isolated compounds, 10-400 μg/ml MeOH extract; gallic acid equivalents
Protocol: The TEAC test was done as previously described with slight modifications. In a quartz cuvette, to 950 μl acetate buffer (pH = 5.0, 100 mM), the following were added: 20 μl laccase (1 mM stock solution), 20 μl test sample, 10 μl ABTS (2,2′-azinobis(3-ethylbenzothiazoline-6-sulfonic acid)) (74 mM stock solution). The laccase were purified from Sclerotinia sclerotiorum according to the protocol described. The sample concentrations in the assay mixture were 400, 200, 100, 10 μg/ml for the MeOH extract and 20 μg/ml for the isolated compounds. The content of the generated ABTS^●+ radical was measured at 420 nm after 230 s reaction time and was converted to gallic acid equivalents by the use of a calibration curve (Pearson’s correlation coefficient: r = 0.998) constructed with 0, 4, 10, 14, 28, 56, 84 μM gallic acid standards rather than Trolox. Experiments were done in triplicate.

Candida parapsilosis = assay: Broth microdilution MIC/MFC against Candida parapsilosis; format: cell-based; details: Candida parapsilosis clinical isolate; for MIC: 37°C, 48 h
Protocol: as §1, §2, §3, §4, §5

[4] = test system: Candida albicans ATCC 9002; assay: Broth microdilution MIC/MFC against Candida albicans ATCC 9002; format: cell-based; details: for MIC: 48 h
Protocol: as §1, §2, §3, §4, §5

Staphylococcus aureus = assay: Broth microdilution MIC/MBC against Staphylococcus aureus; format: cell-based; details: Staphylococcus aureus clinical isolate; for MIC: 37°C, 24 h
Protocol: as §1, §2, §3, §4, §5

[5] = test system: Cryptococcus neoformans IP 90526; assay: Broth microdilution MIC/MFC against Cryptococcus neoformans IP 90526; format: cell-based; details: for MIC: 48 h
Protocol: as §1, §2, §3, §4, §5

[6] = test system: Escherichia coli ATCC8739; assay: Broth microdilution MIC/MBC against Escherichia coli ATCC8739; format: cell-based; details: for MIC: 37°C, 24 h
Protocol: as §1, §2, §3, §4, §5

[7] = DPPH free radical scavenging assay; format: biochemical; details: 30 min, room temperature, 517 nm
Protocol: The free radical scavenging activity of the MeOH extract as well as some of its isolated compounds was evaluated according to described methods with slight modifications. Briefly, the test samples, prior dissolved in DMSO (SIGMA) beforehand, were mixed with a 20 mg/l 2,2-diphenyl-1-picryl-hydrazyl (DPPH) methanol solution, to give final concentrations of 10, 50, 100, 500 and 1000 μg/ml. After 30 min at room temperature, the absorbance values were measured at 517 nm and converted into percentage of antioxidant activity. L-ascorbic acid was used as a standard control. The percentage of decolouration of DPPH (%) was calculated as follows: %decolourationofDPPH=Absorbanceofcontrol−Absorbanceoftestsample)×100/Absorbanceofcontrol
The percentage of decolouration of DPPH (%) was plotted against the test sample. Also, the percentage of decolouration of DPPH was converted in probits. The probit values were plotted against the logarithmic values of concentrations of the test samples and a linear regression curve was established in order to calculate the EC50 (μg/ml), which is the amount of sample necessary to decrease by 50% the absorbance of DPPH [11]. All the analyses were carried out in triplicate.

[8] = test system: Klebsiella pneumoniae ATCC11296; assay: Broth microdilution MIC/MBC against Klebsiella pneumoniae ATCC11296; format: cell-based; details: for MIC: 37°C, 24 h
Protocol: as §1, §2, §3, §4, §5

bacteria = assay: Broth microdilution, bacterial strains (panel summary); format: cell-based; details: range over the bacterial strains
Protocol: as §1
as §2, with “bacteria. […]” for “bacteria.”
MICs were determined by broth micro dilution. […] MICs were assessed visually after the corresponding incubation period and were taken as the lowest sample concentration at which there was no growth or virtually no growth. […]

[9] = Lodderomyces parapsilosis, read-out: MIC
[10] = Lodderomyces parapsilosis, read-out: MFC

Compound	MBC/MIC [2]	MIC [2]	MFC/MIC (Candida parapsilosis)	MIC (Candida parapsilosis; [9])	MIC ([4]; ATCC9002, 37°C, read-out: MIC)	MIC (Staphylococcus aureus)	MFC/MIC [5]	MIC ([5]; IP90526, 37°C, read-out: MIC)	MBC/MIC [6]	MIC [6]	EC50, concentration scavenging 50% of DPPH radical [7]	MBC/MIC [8]	MIC [8]	studied microorganisms on which inhibitory effects were noted [1]	MBC [2]	Gallic acid equivalent antioxidant capacity (TEAC) [3]	MFC (Candida parapsilosis; [10])	MBC (Staphylococcus aureus)	MBC [6]	MBC [8]	further results
O=c1c(O)c(-c2ccc(O)c(O)c2)oc2cc(O)cc(O)c12 [Compound 2, quercetin]	1	64 µg/mL (≈ 212 µM)	1	64 µg/mL (≈ 212 µM)	128 µg/mL (≈ 424 µM)	256 µg/mL (≈ 847 µM)	1	64 µg/mL (≈ 212 µM)	2	128 µg/mL (≈ 424 µM)	5.08 µg/mL	1	64 µg/mL (≈ 212 µM)	7/7	64 µg/mL (≈ 212 µM)	89.86 µg/mL	64 µg/mL (≈ 212 µM)	> 256 µg/mL	256 µg/mL (≈ 847 µM)	64 µg/mL (≈ 212 µM)	MIC (range over fungi) (fungi): 64 to 128 µg/mL; activity against all the microbial strains (in words) [1]: active against all the microbial strains; MFC/MIC [4]: 1; MFC ([4]; ATCC9002, read-out: MFC): 128 µg/mL (≈ 424 µM); MFC ([5]; IP90526, read-out: MFC): 64 µg/mL (≈ 212 µM)
O=c1c(O[C@@H]2O[C@H](CO)[C@H](O)[C@H](O)[C@H]2O)c(-c2ccc(O)c(O)c2)oc2cc(O)cc(O)c12 [Compound 4, quercetin 3-O-β-D-galactopyranoside]	2	32 µg/mL (≈ 68.9 µM)	2	128 µg/mL (≈ 276 µM)	256 µg/mL (≈ 551 µM)	128 µg/mL (≈ 276 µM)	1	128 µg/mL (≈ 276 µM)	1	128 µg/mL (≈ 276 µM)	13.44 µg/mL	2	32 µg/mL (≈ 68.9 µM)	7/7	64 µg/mL (≈ 138 µM)	72.95 µg/mL	256 µg/mL (≈ 551 µM)	128 µg/mL (≈ 276 µM)	128 µg/mL (≈ 276 µM)	64 µg/mL (≈ 138 µM)	activity against all the microbial strains (in words) [1]: active against all the microbial strains; MFC/MIC [4]: 1; MFC ([4]; ATCC9002, read-out: MFC): 256 µg/mL (≈ 551 µM); MBC/MIC (Staphylococcus aureus): 1; MFC ([5]; IP90526, read-out: MFC): 128 µg/mL (≈ 276 µM)
O=C(N[C@H](CO)[C@H](O)c1ccc([N+](=O)[O-])cc1)C(Cl)Cl [chloramphenicol, Chloramphenicol, reference compound]	1	64 µg/mL (≈ 198 µM)	–	–	–	64 µg/mL (≈ 198 µM)	–	–	1	64 µg/mL (≈ 198 µM)	–	1	16 µg/mL (≈ 49.5 µM)	–	64 µg/mL (≈ 198 µM)	–	–	64 µg/mL (≈ 198 µM)	64 µg/mL (≈ 198 µM)	16 µg/mL (≈ 49.5 µM)	MBC/MIC (Staphylococcus aureus): 1; MIC (range over bacteria) (bacteria): 16 to 64 µg/mL
C[C@@H]1[C@H](O)[C@@H](C)/C=C/C=C/CC/C=C/C=C/C=C/C=C/C(O[C@H]2O[C@H](C)[C@@H](O)[C@H](N)[C@@H]2O)CC2O[C@](O)(CC(O)C(O)CCC(O)CC(O)CC(O)CC(=O)O[C@H]1C)CC(O)C2C(=O)O (stereo partly drawn) [nystatin, reference compound]	–	–	1	–	–	–	2	–	–	–	–	–	–	–	–	–	–	–	–	–	MIC (range over fungi) (fungi): 128 to 256 µg/mL; MFC (Candida parapsilosis): 256 µg/mL (≈ 276 µM); MIC (Candida parapsilosis): 256 µg/mL (≈ 276 µM); MFC [4]: 128 µg/mL (≈ 138 µM); MFC/MIC [4]: 1; MIC ([4]; 37°C): 128 µg/mL (≈ 138 µM); MFC [5]: 256 µg/mL (≈ 276 µM); MIC ([5]; 37°C): 128 µg/mL (≈ 138 µM)
O=C1O[C@H]([C@@H](O)CO)C(O)=C1O [vitamin C, L-ascorbic acid, reference compound]	–	–	–	–	–	–	–	–	–	–	4.72 µg/mL	–	–	–	–	–	–	–	–	–	–

The next lines start with results.

MBC/MIC [2]	MIC [2]	MFC/MIC (Candida parapsilosis)	MIC (Candida parapsilosis; [9])	MIC ([4]; ATCC9002, 37°C, read-out: MIC)	MIC (Staphylococcus aureus)	MFC/MIC [5]	MIC ([5]; IP90526, 37°C, read-out: MIC)	MBC/MIC [6]	MIC [6]	EC50, concentration scavenging 50% of DPPH radical [7]	MBC/MIC [8]	MIC [8]	Compound	studied microorganisms on which inhibitory effects were noted [1]	MBC [2]	Gallic acid equivalent antioxidant capacity (TEAC) [3]	MFC (Candida parapsilosis; [10])	MBC (Staphylococcus aureus)	MBC [6]	MBC [8]	further results
1	128 µg/mL (≈ 287 µM)	2	64 µg/mL (≈ 143 µM)	> 256 µg/mL	> 256 µg/mL	1	128 µg/mL (≈ 287 µM)	–	> 256 µg/mL	29.16 µg/mL	1	256 µg/mL (≈ 574 µM)	O=C(O)[C@H]1O[C@@H](Oc2cc(O)c3c(=O)cc(-c4ccc(O)cc4)oc3c2)[C@H](O)[C@@H](O)[C@@H]1O [Compound 3, apigenin-7-O-β-D-glucuronopyranoside]	4/7	128 µg/mL (≈ 287 µM)	–	128 µg/mL (≈ 287 µM)	–	–	256 µg/mL (≈ 574 µM)	MFC ([5]; IP90526, read-out: MFC): 128 µg/mL (≈ 287 µM)
1	32 µg/mL (≈ 52.4 µM)	–	> 256 µg/mL	> 256 µg/mL	64 µg/mL (≈ 105 µM)	–	> 256 µg/mL	1	64 µg/mL (≈ 105 µM)	9.63 µg/mL	2	8 µg/mL (≈ 13.1 µM)	C[C@@H]1O[C@@H](OC[C@H]2O[C@@H](Oc3c(-c4ccc(O)c(O)c4)oc4cc(O)cc(O)c4c3=O)[C@H](O)[C@@H](O)[C@@H]2O)[C@H](O)[C@H](O)[C@H]1O [Compound 5, quercetin 3-O-α-L-rhamnopyranosyl (1 → 6) β-D-glucopyranoside]	4/7	32 µg/mL (≈ 52.4 µM)	78.35 µg/mL	–	128 µg/mL (≈ 210 µM)	64 µg/mL (≈ 105 µM)	16 µg/mL (≈ 26.2 µM)	activity against fungal/yeast strains (in words) (fungi; fungal strains): inactive; MBC/MIC (Staphylococcus aureus): 2; MIC (range over bacteria) (bacteria): 8 to 64 µg/mL
